pIC50 data for 6 compounds are collected here from the supplement of paper PMC12076712.

Assay in all cases: pIC50, kinobeads binding competition
One assay has as its target T1, EPHB1 (UniProt P54762).
T1 sequence (whole entry): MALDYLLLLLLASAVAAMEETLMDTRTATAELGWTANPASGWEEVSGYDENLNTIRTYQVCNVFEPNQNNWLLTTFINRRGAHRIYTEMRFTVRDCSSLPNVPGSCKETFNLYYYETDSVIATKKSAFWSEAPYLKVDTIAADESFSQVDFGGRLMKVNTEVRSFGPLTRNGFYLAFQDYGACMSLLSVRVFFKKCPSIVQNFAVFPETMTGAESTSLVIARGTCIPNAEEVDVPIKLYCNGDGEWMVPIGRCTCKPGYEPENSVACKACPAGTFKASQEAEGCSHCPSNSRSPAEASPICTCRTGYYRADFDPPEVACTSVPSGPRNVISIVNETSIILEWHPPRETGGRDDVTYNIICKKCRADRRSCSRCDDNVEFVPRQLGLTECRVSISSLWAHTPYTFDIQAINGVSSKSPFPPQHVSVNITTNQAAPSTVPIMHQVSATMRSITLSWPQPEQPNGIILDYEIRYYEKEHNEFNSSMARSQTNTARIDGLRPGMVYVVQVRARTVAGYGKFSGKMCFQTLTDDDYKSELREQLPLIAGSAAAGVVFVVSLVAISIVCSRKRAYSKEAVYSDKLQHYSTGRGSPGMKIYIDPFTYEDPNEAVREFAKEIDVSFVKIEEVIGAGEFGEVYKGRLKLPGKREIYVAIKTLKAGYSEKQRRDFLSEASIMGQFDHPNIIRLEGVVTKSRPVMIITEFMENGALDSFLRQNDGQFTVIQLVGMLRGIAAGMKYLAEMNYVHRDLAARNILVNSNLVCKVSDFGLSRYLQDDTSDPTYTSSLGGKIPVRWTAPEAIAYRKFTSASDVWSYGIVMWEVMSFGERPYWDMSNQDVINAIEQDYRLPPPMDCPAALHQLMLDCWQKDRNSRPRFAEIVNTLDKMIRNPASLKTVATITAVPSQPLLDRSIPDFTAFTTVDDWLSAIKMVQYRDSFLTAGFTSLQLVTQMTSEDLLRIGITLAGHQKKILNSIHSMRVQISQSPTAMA
The settings on record: cell material: Lysate mix. The gist of the method:
(§1)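 Either living Jurkat cells (60 min at 37 °C, then lysis) or lysates (60 min at 4 °C) were treated with nine compound concentrations from a top of 30 μM, in 1:4 steps for cells and 1:5 steps for lysates. The lysates were from Jurkat cells or a 1:1:1:1 mix of HEK293, K-562, HepG2 and placenta. Kinobeads-bound proteins were digested and quantified by TMT10 LC-MS/MS. pIC50 was calculated by logistic dose-response fitting (R drc package) of fold changes relative to vehicle, in biological duplicates.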

The target in another assay is T2, BMPR2 (UniProt Q13873).
T2 sequence (whole entry): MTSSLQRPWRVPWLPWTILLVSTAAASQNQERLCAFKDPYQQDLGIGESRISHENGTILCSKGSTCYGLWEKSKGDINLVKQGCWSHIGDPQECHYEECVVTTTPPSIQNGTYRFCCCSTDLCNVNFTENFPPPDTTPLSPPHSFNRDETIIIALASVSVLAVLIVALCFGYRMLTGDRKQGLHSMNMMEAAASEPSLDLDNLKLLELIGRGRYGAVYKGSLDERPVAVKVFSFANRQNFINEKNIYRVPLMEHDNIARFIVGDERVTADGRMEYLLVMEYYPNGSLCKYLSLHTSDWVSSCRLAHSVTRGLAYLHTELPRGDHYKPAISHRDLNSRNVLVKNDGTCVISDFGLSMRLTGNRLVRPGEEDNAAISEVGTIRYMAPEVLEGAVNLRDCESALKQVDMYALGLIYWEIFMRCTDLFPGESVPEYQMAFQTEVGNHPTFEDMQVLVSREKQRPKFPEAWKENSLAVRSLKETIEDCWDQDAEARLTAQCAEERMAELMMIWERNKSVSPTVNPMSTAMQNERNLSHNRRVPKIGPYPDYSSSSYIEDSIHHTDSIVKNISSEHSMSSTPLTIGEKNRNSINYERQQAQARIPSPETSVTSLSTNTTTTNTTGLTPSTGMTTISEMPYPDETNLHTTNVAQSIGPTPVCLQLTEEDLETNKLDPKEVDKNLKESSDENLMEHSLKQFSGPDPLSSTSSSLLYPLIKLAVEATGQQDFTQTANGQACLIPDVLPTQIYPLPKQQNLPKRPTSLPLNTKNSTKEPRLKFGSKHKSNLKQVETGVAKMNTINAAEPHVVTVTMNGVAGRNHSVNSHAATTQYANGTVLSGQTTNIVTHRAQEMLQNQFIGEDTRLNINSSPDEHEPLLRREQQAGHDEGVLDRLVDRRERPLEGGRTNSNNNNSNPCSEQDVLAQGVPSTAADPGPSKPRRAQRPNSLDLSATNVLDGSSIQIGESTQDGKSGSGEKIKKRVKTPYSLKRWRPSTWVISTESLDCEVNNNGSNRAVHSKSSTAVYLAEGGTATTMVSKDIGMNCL
In outline:
as §1

The target in a further assay is UniProt Q02763. The settings on record: cell material: Lysate mix. The gist of the method: as §1

The structures appear in SMILES notation.

UniProt Q02763, sequence (Q02763 whole entry): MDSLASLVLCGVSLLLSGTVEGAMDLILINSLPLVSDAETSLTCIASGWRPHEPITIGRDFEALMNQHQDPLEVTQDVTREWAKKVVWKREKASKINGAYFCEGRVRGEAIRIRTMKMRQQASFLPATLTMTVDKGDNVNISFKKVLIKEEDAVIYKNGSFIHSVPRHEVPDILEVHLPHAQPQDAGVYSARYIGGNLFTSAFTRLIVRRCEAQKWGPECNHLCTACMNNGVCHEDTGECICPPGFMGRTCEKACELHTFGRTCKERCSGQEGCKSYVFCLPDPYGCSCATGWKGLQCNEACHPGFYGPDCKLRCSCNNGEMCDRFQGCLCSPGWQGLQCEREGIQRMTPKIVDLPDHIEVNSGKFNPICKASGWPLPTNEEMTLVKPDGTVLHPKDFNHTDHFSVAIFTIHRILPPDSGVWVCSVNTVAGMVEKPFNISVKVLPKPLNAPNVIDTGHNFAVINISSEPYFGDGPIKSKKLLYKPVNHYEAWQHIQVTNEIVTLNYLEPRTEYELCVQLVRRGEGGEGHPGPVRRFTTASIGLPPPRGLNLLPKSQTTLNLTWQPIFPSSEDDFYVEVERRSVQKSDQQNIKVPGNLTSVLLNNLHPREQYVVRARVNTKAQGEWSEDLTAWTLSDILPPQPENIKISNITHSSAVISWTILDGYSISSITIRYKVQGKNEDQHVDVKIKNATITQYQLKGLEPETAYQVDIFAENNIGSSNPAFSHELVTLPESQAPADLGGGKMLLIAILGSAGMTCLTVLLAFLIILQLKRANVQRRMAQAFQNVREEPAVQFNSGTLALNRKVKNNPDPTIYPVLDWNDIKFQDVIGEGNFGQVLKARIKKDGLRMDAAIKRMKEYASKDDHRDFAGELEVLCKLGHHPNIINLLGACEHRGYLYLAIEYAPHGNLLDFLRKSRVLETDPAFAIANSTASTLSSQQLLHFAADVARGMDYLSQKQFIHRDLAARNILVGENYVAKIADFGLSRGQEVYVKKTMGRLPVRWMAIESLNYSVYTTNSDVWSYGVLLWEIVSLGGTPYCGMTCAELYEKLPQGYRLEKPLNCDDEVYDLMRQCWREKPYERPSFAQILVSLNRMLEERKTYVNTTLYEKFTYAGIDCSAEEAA

For `O=C(NCCNC(=O)c1cc(Nc2cc(C3CC3)[nH]n2)nc(N2CCN(Cc3ccc(S(=O)(=O)F)cc3)CC2)n1)OC1CC/C=C/CCC1` (configuration not stated), the pIC50 at EPHB1, on BMPR2 (cell material: Jurkat cells), at BMPR2 (cell material: Jurkat lysate), at BMPR2 (cell material: Lysate mix) and at UniProt Q02763 was under 4.52 throughout.

As to `Cc1cc(Nc2cc(C(=O)NCCNC(=O)OC3CC/C=C/CCC3)nc(N3CCN(Cc4ccc(S(=O)(=O)F)cc4)CC3)n2)n[nH]1` (configuration not stated), the pIC50 on EPHB1, on BMPR2 (cell material: Lysate mix) and on UniProt Q02763 was under 4.52 in each case.

`CCNC(=O)c1cc(Nc2cc(C)[nH]n2)nc(N2CCN(Cc3ccc(S(=O)(=O)F)cc3)CC2)n1`: the pIC50 at EPHB1, on BMPR2 (cell material: Lysate mix) and at UniProt Q02763 was under 4.52 in each case.

As to `C#CCNC(=O)c1cc(Nc2cc(C3CC3)[nH]n2)nc(N2CCN(Cc3ccc(S(=O)(=O)F)cc3)CC2)n1`, the pIC50 (as a rule, −log10 of the IC50, conventionally taken in molar units) was under 4.52 on EPHB1; 5.72 on BMPR2 (cell material: Jurkat cells); under 4.52 on BMPR2 (cell material: Jurkat lysate); under 4.52 on BMPR2 (cell material: Lysate mix); under 4.52 at UniProt Q02763.

In the case of `C#CCNC(=O)c1cc(Nc2cc(C)[nH]n2)nc(N2CCN(Cc3ccc(S(=O)(=O)F)cc3)CC2)n1`, the pIC50 at EPHB1, at BMPR2 (cell material: Lysate mix) and at UniProt Q02763 was under 4.52 each time.

With `CCNC(=O)c1cc(Nc2cc(C3CC3)[nH]n2)nc(N2CCN(Cc3ccc(S(=O)(=O)F)cc3)CC2)n1`, the negative-log IC50 (pIC50) on EPHB1, at BMPR2 (cell material: Lysate mix) and on UniProt Q02763 was under 4.52 throughout.
